IC50, EC50 and AC50 data for five molecules are collected here from ChEMBL document CHEMBL1201862, “PubChem BioAssay data set” (2004).

Test [1] deals with T1, Voltage-gated N-type calcium channel alpha-1B subunit/Amyloid beta A4 precursor protein-binding family A member 1 (Homo sapiens, UniProt Q00975+Q02410). Briefly: disruptors of Mint-PDZ/N-type channel peptide interaction – biochemical, HTRF, SAR follow-up (AID 2489). Format: functional. For orientation: TR-FRET usually uses a lanthanide donor and a delayed reading to cut background.
T1 sequence (Q00975 whole entry): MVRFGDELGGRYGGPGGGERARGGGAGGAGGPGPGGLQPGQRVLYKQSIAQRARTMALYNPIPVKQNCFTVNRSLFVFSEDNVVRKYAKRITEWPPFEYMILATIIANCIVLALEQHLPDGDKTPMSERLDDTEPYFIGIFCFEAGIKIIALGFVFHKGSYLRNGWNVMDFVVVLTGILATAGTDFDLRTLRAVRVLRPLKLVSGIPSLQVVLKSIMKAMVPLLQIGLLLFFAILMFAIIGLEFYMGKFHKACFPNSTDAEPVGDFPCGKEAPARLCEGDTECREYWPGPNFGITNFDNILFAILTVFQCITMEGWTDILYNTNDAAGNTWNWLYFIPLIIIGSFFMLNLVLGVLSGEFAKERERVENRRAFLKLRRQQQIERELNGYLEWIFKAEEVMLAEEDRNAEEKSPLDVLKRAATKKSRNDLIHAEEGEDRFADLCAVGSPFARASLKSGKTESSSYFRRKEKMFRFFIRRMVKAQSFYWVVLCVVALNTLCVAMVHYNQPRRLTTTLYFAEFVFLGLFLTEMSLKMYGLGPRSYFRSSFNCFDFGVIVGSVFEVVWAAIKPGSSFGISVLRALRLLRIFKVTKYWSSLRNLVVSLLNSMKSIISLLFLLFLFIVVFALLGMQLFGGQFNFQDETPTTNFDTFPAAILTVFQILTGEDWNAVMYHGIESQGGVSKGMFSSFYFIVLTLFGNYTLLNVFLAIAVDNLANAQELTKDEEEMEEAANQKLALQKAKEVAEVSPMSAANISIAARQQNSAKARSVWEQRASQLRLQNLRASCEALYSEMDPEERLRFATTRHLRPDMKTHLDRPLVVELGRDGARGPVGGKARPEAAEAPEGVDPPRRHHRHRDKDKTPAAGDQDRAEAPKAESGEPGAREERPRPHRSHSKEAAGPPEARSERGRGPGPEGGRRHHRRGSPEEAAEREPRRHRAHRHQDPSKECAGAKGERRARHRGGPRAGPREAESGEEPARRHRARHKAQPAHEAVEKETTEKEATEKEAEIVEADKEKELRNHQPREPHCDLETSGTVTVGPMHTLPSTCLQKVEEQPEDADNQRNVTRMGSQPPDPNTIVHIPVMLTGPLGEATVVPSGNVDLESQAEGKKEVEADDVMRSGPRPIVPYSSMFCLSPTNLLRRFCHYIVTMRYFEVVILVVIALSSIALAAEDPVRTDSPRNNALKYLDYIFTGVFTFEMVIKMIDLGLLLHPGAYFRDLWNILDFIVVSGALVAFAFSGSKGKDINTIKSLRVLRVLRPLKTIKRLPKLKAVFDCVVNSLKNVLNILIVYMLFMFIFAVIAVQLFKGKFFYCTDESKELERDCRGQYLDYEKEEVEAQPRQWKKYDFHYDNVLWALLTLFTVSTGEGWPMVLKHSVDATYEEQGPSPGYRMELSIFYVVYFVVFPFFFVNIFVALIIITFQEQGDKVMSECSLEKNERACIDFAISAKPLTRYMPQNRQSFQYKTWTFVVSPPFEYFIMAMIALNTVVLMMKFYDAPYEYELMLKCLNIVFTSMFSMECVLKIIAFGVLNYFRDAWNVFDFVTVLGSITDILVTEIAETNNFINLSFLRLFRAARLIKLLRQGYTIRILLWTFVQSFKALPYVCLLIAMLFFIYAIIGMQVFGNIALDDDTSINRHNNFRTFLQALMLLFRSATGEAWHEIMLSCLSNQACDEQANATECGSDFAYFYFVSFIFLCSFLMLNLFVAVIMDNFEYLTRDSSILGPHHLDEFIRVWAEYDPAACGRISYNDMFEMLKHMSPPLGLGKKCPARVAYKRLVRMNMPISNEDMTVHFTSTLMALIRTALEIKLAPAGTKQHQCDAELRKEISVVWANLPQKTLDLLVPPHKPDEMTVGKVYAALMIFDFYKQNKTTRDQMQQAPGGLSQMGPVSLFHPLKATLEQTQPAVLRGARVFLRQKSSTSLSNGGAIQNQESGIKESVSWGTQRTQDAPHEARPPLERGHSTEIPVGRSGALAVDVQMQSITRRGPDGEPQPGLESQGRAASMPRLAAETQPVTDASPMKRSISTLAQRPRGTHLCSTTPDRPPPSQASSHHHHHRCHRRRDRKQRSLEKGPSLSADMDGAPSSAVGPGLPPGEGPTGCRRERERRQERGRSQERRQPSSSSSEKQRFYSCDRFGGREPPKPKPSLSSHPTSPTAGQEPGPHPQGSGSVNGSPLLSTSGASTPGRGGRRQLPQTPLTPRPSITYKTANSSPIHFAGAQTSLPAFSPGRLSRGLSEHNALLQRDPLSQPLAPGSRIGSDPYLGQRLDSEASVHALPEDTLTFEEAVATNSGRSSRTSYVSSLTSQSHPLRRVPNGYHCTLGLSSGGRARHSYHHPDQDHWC
T1 sequence (Q02410 whole entry): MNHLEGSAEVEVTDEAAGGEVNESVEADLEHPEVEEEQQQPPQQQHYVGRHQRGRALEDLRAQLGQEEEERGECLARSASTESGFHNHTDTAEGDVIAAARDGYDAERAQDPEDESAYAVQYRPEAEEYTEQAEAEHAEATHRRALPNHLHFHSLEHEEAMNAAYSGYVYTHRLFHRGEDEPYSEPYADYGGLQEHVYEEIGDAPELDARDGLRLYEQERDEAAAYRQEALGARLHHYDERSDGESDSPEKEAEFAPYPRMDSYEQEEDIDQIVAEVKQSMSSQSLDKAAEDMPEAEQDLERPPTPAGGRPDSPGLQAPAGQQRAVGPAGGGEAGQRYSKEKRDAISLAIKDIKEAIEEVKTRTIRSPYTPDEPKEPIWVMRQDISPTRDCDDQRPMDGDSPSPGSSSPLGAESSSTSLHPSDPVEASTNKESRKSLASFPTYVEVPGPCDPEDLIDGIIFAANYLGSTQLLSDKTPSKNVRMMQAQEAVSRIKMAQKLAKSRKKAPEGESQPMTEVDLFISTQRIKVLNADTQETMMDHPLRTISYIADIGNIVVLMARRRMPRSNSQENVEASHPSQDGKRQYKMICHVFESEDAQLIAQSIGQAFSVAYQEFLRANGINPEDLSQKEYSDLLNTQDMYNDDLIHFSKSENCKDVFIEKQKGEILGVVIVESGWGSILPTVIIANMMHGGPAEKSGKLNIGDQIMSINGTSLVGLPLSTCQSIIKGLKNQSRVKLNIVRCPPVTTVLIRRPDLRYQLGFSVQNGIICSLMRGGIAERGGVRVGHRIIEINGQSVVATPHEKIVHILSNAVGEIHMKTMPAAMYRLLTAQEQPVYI

Test [2] concerns the target T1, Voltage-gated N-type calcium channel alpha-1B subunit/Amyloid beta A4 precursor protein-binding family A member 1. Briefly: disruptors of Mint-PDZ/N-type channel peptide interaction – biochemical, HTRF, set 2, SAR follow-up (AID 434980). Type of test: functional.
In the next test the target is SUMO E1/E2 (Homo sapiens, UniProt P63279+Q9UBE0+Q9UBT2). As to the kind of experiment: SAR analysis of SUMOylation using HTRF in an in-Vitro dose response assay. [Related pubchem assays (depositor defined):AID2006, AID2011, AID2018, AID2069, AID2658]. Type of test: functional.
In test [3] the test system is Streptococcus sp. 'group A'. As to the kind of experiment: Streptococcus pyogenes SK(-)GAS viability under kanamycin – luminescence, BacTiterGlo, confirmation, counter-screen for streptokinase expression inhibitor project, dose response (AID 1900). Format: functional, organism-based. (In general: The purpose of a counterscreen is to sort out artefacts and off-target activity.)

Test [4] addresses Scavenger receptor class B member 1 (Mus musculus, UniProt Q61009). Briefly: mouse SR-BI DiI-HDL uptake blockers – ldlA[mSR-BI] cells, fluorescence, cherry pick, dose response (AID 493194).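 Further: cellular uptake of fluorescent DiI-labeled HDL measured as cell fluorescence.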 Format: functional, cell-based.
Test [5] concerns Streptococcus. As to the kind of experiment: GAS UMAA2166 growth inhibition – luminescence, BacTiterGlo, counter-screen for streptokinase expression inhibitor project, dose response (AID 1915).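 Further: potency for reduction of bacterial viability or growth.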 Format: functional, organism-based.
For a further test, the target named is T2, Streptokinase A (Streptococcus pyogenes serotype M1, UniProt P10520).
T2 sequence (P10520 whole entry): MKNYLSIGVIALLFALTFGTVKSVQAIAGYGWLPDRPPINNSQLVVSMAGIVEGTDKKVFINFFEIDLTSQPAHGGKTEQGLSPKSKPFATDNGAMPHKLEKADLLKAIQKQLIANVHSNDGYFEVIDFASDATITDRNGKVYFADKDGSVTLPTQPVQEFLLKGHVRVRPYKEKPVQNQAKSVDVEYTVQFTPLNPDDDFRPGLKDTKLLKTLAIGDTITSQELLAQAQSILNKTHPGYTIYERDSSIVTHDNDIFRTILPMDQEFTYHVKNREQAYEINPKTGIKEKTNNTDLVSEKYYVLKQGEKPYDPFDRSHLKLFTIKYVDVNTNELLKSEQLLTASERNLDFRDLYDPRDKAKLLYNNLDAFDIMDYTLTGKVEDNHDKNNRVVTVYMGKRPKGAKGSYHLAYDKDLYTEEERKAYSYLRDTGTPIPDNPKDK
Briefly: viability-normalized secreted streptokinase activity reduction – plasminogen activation absorbance, OD405, dose response (AID 1914).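 Further: secreted streptokinase activity via plasminogen activation per viability signal from cell pellet.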 Type of test: functional, Streptococcus pyogenes M1 GAS.

Another test has as its target Tumor necrosis factor (Homo sapiens, UniProt P01375). Briefly: analog potency on TNFa NF-kB signaling – cell-based, revised, SAR follow-up (AID 2337). Type of test: functional.
Test [6] relates to HEK293. As to the kind of experiment: cells. Format: functional, cell-based. The settings on record: Homo sapiens.
Test [7] has as its target Nucleotide-binding oligomerization domain-containing protein 2 (Homo sapiens, UniProt Q9HC29). Briefly: PubChem AID 2334. Format: functional.
The subject of test [8] is HEK293. As to the kind of experiment: NOD2 signaling inhibitors in MDP-stimulated cells, cell-based, uHTS, luminescence (AID 2001). Format: functional. The settings on record: Homo sapiens.
The test system of test [9] is HEK293. Briefly: cells. Type of test: functional, cell-based. The settings on record: Homo sapiens. The source holds these as a separate data set.
Test [10] concerns HEK293. Briefly: cells. The settings on record: Homo sapiens.
In test [11] the target is Nucleotide-binding oligomerization domain-containing protein 1 (Homo sapiens, UniProt Q9Y239). As to the kind of experiment: blockers of NOD1 pathway activity – revised, SAR follow-up (AID 2333). Type of test: functional.
Test [12] has as its system HEK293. As to the kind of experiment: inhibition of NOD1-driven NF-kB reporter – cell-based, luminescence, uHTS, primary screen (AID 1578). Format: functional. The settings on record: Homo sapiens.
Test [13] deals with Induced myeloid leukemia cell differentiation protein Mcl-1 (Homo sapiens, UniProt Q07820). Type of test: functional.
The target in another test is Beta-galactosidase (Escherichia coli, UniProt Q8VNN2). Briefly: detection-enzyme interference by beta-gal modulators – biochemical, E. coli enzyme, set 3, artefact control for CCR6 antagonist project, dose response (AID 504712). Type of test: functional.
Test [14] concerns the target Transitional endoplasmic reticulum ATPase (Homo sapiens, UniProt P55072). As to the kind of experiment: p97 ATPase inhibitors, dose response, biochemical (AID 1534).
In test [15] the target is Transitional endoplasmic reticulum ATPase (Homo sapiens, UniProt P55072, C522A). Briefly: C522A mutant p97 ATPase inhibitors, dose response, counter-screen for p97 inhibitor project, biochemical, luminescence (AID 1544).
Test [16] has as its system Streptococcus. Briefly: Luminescence Microorganism-Based Dose Response Follow up to Identify Compounds Cytotoxic to Streptococcus. [Related pubchem assays: 1677 (Project Summary), 1915, 1914, 1902 (Retest at Dose), 1900 (Counter Screen), 1662 (Primary HTS)]. Format: functional, organism-based.

Molecules are shown by their SMILES. Active and inactive are the calls of the source.

Sequence of Nucleotide-binding oligomerization domain-containing protein 2 (Q9HC29 whole entry, the tested form may be a part): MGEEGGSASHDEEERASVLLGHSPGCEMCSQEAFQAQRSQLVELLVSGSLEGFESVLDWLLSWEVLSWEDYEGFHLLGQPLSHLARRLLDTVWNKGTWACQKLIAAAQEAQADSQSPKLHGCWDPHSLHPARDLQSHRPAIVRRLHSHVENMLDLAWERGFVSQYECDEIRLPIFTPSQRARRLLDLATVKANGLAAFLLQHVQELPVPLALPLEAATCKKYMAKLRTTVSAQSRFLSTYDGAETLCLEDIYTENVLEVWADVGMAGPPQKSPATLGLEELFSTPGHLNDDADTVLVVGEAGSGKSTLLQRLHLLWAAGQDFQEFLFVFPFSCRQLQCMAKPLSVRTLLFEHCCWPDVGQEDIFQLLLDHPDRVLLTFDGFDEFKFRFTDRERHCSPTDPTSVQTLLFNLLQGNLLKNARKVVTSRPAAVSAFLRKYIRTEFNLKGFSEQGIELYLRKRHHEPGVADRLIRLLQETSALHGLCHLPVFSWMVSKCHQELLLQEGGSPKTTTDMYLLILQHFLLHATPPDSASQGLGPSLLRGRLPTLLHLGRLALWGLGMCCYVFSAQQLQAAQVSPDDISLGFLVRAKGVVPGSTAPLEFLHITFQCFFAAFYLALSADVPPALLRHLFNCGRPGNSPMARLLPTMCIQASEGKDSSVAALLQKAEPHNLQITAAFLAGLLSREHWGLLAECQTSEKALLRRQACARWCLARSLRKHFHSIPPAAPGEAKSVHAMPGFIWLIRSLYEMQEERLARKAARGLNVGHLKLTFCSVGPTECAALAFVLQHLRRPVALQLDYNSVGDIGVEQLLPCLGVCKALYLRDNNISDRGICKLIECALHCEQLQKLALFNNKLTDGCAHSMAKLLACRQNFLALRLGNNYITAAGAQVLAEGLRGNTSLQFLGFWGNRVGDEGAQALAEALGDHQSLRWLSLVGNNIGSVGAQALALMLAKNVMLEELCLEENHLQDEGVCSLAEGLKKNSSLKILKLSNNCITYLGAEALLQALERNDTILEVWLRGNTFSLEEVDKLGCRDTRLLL
Sequence of Scavenger receptor class B member 1 (Q61009 whole entry): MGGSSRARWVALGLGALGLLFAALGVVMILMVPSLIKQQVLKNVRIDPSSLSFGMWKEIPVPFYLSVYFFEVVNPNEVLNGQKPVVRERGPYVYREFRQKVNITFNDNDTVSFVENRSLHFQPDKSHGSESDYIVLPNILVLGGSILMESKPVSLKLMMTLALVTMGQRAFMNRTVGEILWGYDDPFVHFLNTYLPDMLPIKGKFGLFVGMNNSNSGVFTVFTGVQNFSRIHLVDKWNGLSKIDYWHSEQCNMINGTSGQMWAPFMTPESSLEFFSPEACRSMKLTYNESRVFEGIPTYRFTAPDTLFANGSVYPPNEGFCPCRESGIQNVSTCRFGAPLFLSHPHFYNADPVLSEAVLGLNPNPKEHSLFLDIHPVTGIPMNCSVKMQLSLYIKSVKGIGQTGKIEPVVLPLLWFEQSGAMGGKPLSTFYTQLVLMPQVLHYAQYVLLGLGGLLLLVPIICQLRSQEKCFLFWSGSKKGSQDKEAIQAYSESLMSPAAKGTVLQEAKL
Sequence of Tumor necrosis factor (P01375 whole entry): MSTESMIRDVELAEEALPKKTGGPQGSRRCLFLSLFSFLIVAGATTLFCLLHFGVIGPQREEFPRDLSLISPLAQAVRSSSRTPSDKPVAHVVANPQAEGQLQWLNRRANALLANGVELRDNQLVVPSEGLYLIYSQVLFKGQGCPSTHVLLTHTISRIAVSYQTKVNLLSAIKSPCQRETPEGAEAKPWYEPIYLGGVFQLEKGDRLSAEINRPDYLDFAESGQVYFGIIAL

For `O=C(NN=Cc1ccc(F)cc1)c1cc(-c2ccco2)nc2ccccc12`, the IC50 is 6.45 µM (active) in test [1], 10.9 µM (active) in test [2] and 5.24 µM (active) on SUMO E1/E2.

For `O=C(Nc1ccc(-c2csc(Nc3ccccc3)n2)cc1)c1cccc(C(F)(F)F)c1`, the EC50 (in [3]; in the test on Streptococcus [5]; at Streptokinase A) was > 150 µM (not active) in each case. In addition, the AC50 in [4] is 347 nM (active).

As for `COc1cccc(Nc2nc3ccccc3nc2NS(=O)(=O)c2cccs2)c1`, the IC50 at Tumor necrosis factor was 12.3 µM (active); in the test with HEK293 [6], > 20 µM (inactive); in test [7], 6.08 µM (active); with HEK293 [8], 11.5 µM (inactive); in the test on HEK293 [9] it was > 20 µM (inactive); with HEK293 [10], > 20 µM (inactive). Moreover, in test [11], the IC50 is 4.68 µM (active). Further, the EC50 in the test on HEK293 [12] was 3.67 µM (active).

As for `O=C1NC(=S)S/C1=C\c1c(-c2ccccc2)[nH]c2ccccc12`, the IC50 is 4.97 µM (active) in test [13], > 66.6 µM (inactive) on Beta-galactosidase, > 50 µM (not active) in test [14] and > 50 µM (not active) in test [15].

As for `Clc1cccc(Cl)c1CSc1nnc(/C=C/c2ccccc2)o1`, the EC50 is > 500 µM (not active) with Streptococcus [16], 28.8 µM (active) in [3], > 150 µM (not active) in the test with Streptococcus [5] and 4.01 µM (active) at Streptokinase A.

As usually defined, the IC50 is the concentration needed to halve the response being measured. As usually defined, the EC50 is the concentration giving half of the maximal effect. The AC50 is the midpoint of the concentration-response curve, whichever way the signal moves.
